Measurements published in patent publication US10023565B2, “N,N′ substituted piperidinamine compounds, and preparation method and usage thereof” (Institute of Pharmacology and Toxicology Academy of …, priority 2013, dated 2018).

Tests used:
BT/Lap^R1.0 = assay: Antitumor bioactivity evaluation, breast cancer cells (ATPlite); format: cell-based, human; settings: Homo sapiens; for inhibition at 5 µM: test sample 5 μM, 72 hours, read-out: Inhibitory Rate % BT/Lap^R1.0
Method in brief: (§1)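 Single-concentration screen: 5 μM compound, or 5 μM compound plus 1 μM lapatinib, on adhered cells (5000/well) for 72 h. Viability by ATPlite luminescence relative to solvent control.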

[1] = system: tumor cells and normal cells (12 kinds of cells); assay: Extended test against tumor cell lines, statements on the whole panel; format: cell-based; settings: 12 kinds of cells, 0.016-4 μM, 72 hours
Procedure: (§2) The compounds of Examples 36/37/40/47/49 were used to carry out extended test against tumor cell lines, wherein 12 kinds of cells were selected, including liver cancer cells, gastric cancer cells, pancreatic cancer cells, colorectal cancer cells, lung cancer cells and normal cells, which were shown in Table 12:
(§3) A 100 mm culture dish with overgrown adherent cells was digested with 1 ml 0.25% trypsin (GIBCO) at 37° C. for 5 min, and the reaction was terminated with 2 ml culture medium (containing 10% FBS, GIBCO). The cells were scattered and collected, after counting, diluted to 1×10^5 cells/ml, and seeded into a 96-well plate at 50 μl/well, 5000 cells/well, excluding the peripheral circle of wells in which no cell was added, but PBS was added, 54 wells in total, and then incubated at 37° C. for 24 hours for adhering.
(§4) The test sample was diluted to final concentration of 4, 1, 0.25, 0.063, 0.016 μM, culture medium was filled in control well, 3 parellel wells were set for each concentration, 50 μl each well, followed by incubation at 37° C. for 72 hours.
(§5) 3) Test after incubation at 37° C. for 72 hours: 50 μL of ATPlite kitsubstrate solution was added in each well, and vibrated for 3 min, followed by placing aside in darkness for 10 min, and then supernatant 100 μl/well was taken and placed on a luminescence test plate; the luminescence test plate that has been fully incubated was placed in a luminescence test instrument, to read luminescence value.
(§6) Cell survival rate (%)=Experimental group RLU/control group RLU×100%. The experimental data were subjected to data analysis and processing by utilizing GraphPad software.

[2] = system: six human breast cancer cell strains; assay: Antitumor activity evaluation, statements on the whole panel; format: cell-based; settings: compound alone
Description: In antitumor activity evaluation, six human breast cancer cell strains are selected, including BT474, SK-BR3 which are human breast cancer cell strains sensitive to lapatinib, BT/Lap^R1.0, SK/Lap^R1.0 which are human breast cancer cell strains with secondary resistance to lapatinib, MDA-MB-361, MDA-MB-453 which are human breast cancer cell strains with natural resistance tolapatinib.
Antitumor bioactivity evaluation of the compounds of Examples according to the method described below
Cells plating: a 100 mm culture dish with overgrown adherent cells was digested with 1 ml 0.25% trypsin (GIBCO) at 37° C. for 5 min, and the reaction was terminated with 2 ml culture medium (containing 10% FBS, GIBCO). The cells were scattered and collected, after counting, diluted to 1×10^5 cells/ml, and seeded into a 96-well plate at 50 μl/well, 5000 cells/well, excluding the peripheral circle of wells in which no cell was added, but PBS was added, 60 wells in total, and then incubated at 37° C. for 24 hours for adhering.
Addition of the compound and lapatinib: the test sample was diluted to a final concentration of 5 μM, and the culture medium with the corresponding compound solvent concentration was filled in the control well, the compound solvent concentration was kept consistent in each well, 5 parellel wells were set for each concentration, 25 μl each well, 25 μl culture medium (in combined group, 25 μl lapatinib was added till a final concentration of 1 μM) supplemented, followed by incubation at 37° C. for 72 hours.
Test after incubation at 37° C. for 72 hours: 50 μL of ATPlite kit substrate solution was added in each well, and vibrated for 3 min, followed by placing aside in darkness for 10 min, and then supernatant 100 μl/well was taken and placed on aluminescence test plate; the luminescence test plate that has been fully incubated was placed in a luminescence test instrument, to read luminescence value.
1. Cell survival rate (%)=Experimental group RLU/control group RLU×100%. The experimental data were subjected to data analysis and processing by utilizing GraphPad software.

MDA-MB-361 = assay: Antitumor bioactivity evaluation, breast cancer cells (ATPlite); format: cell-based; settings: Homo sapiens, test sample 5 μM, 72 hours, read-out: Inhibitory Rate % MDA-MB-361
Method in brief: as §1

SK/Lap^R1.0 = assay: as above; format: cell-based; settings: Homo sapiens; test sample 5 μM, 72 hours; read-out: Inhibitory Rate % SKLap^R1.0
Method in brief: as §1

SK-BR3 = assay: as above; format: cell-based; settings: Homo sapiens, SK-BR-3; test sample 5 μM, 72 hours; read-out: Inhibitory Rate % SK-BR3
Method in brief: as §1

MDA-MB-453 = assay: as above; format: cell-based; settings: Homo sapiens, test sample 5 μM, 72 hours, read-out: Inhibitory Rate % MDA-MB-453
Method in brief: as §1

BT474 = assay: as above; format: cell-based; settings: Homo sapiens, BT-474; for inhibition at 5 µM: test sample 5 μM, 72 hours, read-out: Inhibitory Rate % BT474
Method in brief: as §1

[3] = system: MRC5 (lung epithelial fibroblast); assay: Extended test against tumor cell lines (ATPlite); format: cell-based; settings: MRC5 (normal cells), 72 hours
Procedure: as §2, §3, §4, §5, §6

COLO205 = assay: Extended test against tumor cell lines (ATPlite); format: cell-based; settings: COLO205 (colorectal cancer), 72 hours
Procedure: as §2, §3, §4, §5, §6

H460 = assay: Extended test against tumor cell lines (ATPlite); format: cell-based; settings: H460 (lung cancer), 72 hours
Procedure: as §2, §3, §4, §5, §6

[4] = system: WI-38 (human embryonic lung fibroblast); assay: Extended test against tumor cell lines (ATPlite); format: cell-based; settings: WI-38 (normal cells), 72 hours
Procedure: as §2, §3, §4, §5, §6

Huh-7 = assay: Extended test against tumor cell lines (ATPlite); format: cell-based; settings: Huh-7 (liver cancer), 72 hours
Procedure: as §2, §3, §4, §5, §6

HepG2 = assay: Extended test against tumor cell lines (ATPlite); format: cell-based; settings: HepG2 (liver cancer), 72 hours
Procedure: as §2, §3, §4, §5, §6

SMILES	IC50 (BT/Lap^R1.0)	inhibition at 5 µM (BT/Lap^R1.0)	inhibition of tumor cells versus cytotoxicity to normal cells [1]	growth inhibition to the six human breast cancer cell strains [2]	inhibition at 5 µM (MDA-MB-361)	inhibition at 5 µM (SK/Lap^R1.0)	inhibition at 5 µM (SK-BR3)	inhibition at 5 µM (MDA-MB-453)	IC50 (BT474)	inhibition at 5 µM (BT474)	Survival rate ([3]; 0.016 μM)	Survival rate ([3]; 0.063 μM)	Survival rate ([3]; 0.25 μM)	Survival rate ([3]; 1 μM)	Survival rate ([3]; 4 μM)	Survival rate (COLO205; 0.016 μM)	Survival rate (COLO205; 0.063 μM)	Survival rate (COLO205; 0.25 μM)	Survival rate (COLO205; 1 μM)	Survival rate (COLO205; 4 μM)	also measured
CSc1nccc(N2CCC(N(C)Cc3c(F)cccc3Cl)CC2)n1 [Example 37, N-methyl-N-(2-fluoro-6-chlorobenzyl)-N-[1-(2-methylthiopyrimidin-4-yl)piperidin-4-yl]amine]	940 nM	70.7%	slightly stronger inhibition to liver cancer than that to other tumor cells, and exhibited cytotoxicity to normal cells lower than inhibition to tumor cells	relatively significant growth inhibition	55.9%	78.3%	78.9%	84.2%	1040 nM	75.5%	97.3%	99.5%	93.5%	90.4%	65.3%	100.1%	97.5%	100.4%	94.5%	12.9%	Survival rate (H460; 0.016 μM): 97.7%; Survival rate (H460; 0.063 μM): 97.9%; Survival rate (H460; 0.25 μM): 92.3%; Survival rate (H460; 1 μM): 63.1%; Survival rate (H460; 4 μM): 22%; Survival rate ([4]; 0.016 μM): 98.6%; Survival rate ([4]; 0.063 μM): 99.2%; Survival rate ([4]; 0.25 μM): 95.5%; Survival rate ([4]; 1 μM): 89.7%; Survival rate ([4]; 4 μM): 65.6%; Survival rate (Huh-7; 0.016 μM): 91.9%; Survival rate (Huh-7; 0.063 μM): 86.7%; Survival rate (Huh-7; 0.25 μM): 82.3%; Survival rate (Huh-7; 1 μM): 46.7%; Survival rate (Huh-7; 4 μM): 14.9%; Survival rate (HepG2; 0.016 μM): 97.1%; Survival rate (HepG2; 0.063 μM): 92.3%; Survival rate (HepG2; 0.25 μM): 78.1%; Survival rate (HepG2; 1 μM): 45.7%; Survival rate (HepG2; 4 μM): 5.6%
CSc1nccc(N2CCC(N(C)Cc3ccc(Cl)cc3Cl)CC2)n1 [Example 40, N-methyl-N-(2,4-dichlorobenzyl)-N-[1-(2-methylthiopyrimidin-4-yl)piperidin-4-yl]amine]	1680 nM	68.1%	slightly stronger inhibition to liver cancer than that to other tumor cells, and exhibited cytotoxicity to normal cells lower than inhibition to tumor cells	relatively significant growth inhibition	64.1%	80.7%	87.6%	68.7%	1620 nM	74.2%	93.6%	88.9%	91.9%	86.5%	67.6%	96.2%	98.2%	98.6%	91.9%	30.3%	Survival rate (H460; 0.016 μM): 98.7%; Survival rate (H460; 0.063 μM): 98.7%; Survival rate (H460; 0.25 μM): 93.7%; Survival rate (H460; 1 μM): 75.9%; Survival rate (H460; 4 μM): 26.3%; Survival rate ([4]; 0.016 μM): 99.3%; Survival rate ([4]; 0.063 μM): 97.3%; Survival rate ([4]; 0.25 μM): 95.8%; Survival rate ([4]; 1 μM): 92.3%; Survival rate ([4]; 4 μM): 64.2%; Survival rate (Huh-7; 0.016 μM): 93.8%; Survival rate (Huh-7; 0.063 μM): 90.7%; Survival rate (Huh-7; 0.25 μM): 87.3%; Survival rate (Huh-7; 1 μM): 65.2%; Survival rate (Huh-7; 4 μM): 14.3%; Survival rate (HepG2; 0.016 μM): 94.7%; Survival rate (HepG2; 0.063 μM): 94.8%; Survival rate (HepG2; 0.25 μM): 86.4%; Survival rate (HepG2; 1 μM): 55.3%; Survival rate (HepG2; 4 μM): 4.5%
